Experimental data as given in patent US20240199613A1 (TAKEDA PHARMACEUTICAL COMPANY LIMITED, priority 2021, published 2024).
Structures can show the parent of a compound that is named as a salt.

Tests used:
[1] = molecular target: human activated kallikrein enzyme (Homo sapiens, UniProt P03952); experiment: Inhibition of activated plasma kallikrein, fluorogenic peptide substrate (PFR-AMC) assay, 500 pM enzyme format; format: biochemical; settings: 500 pM activated kallikrein, 300 uM PFR-AMC, 30 min preincubation, 10 min reaction, room temperature; read-out: Primary Dose Response Assay: Average EC50
How it was run: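 500 pM enzyme preincubated 30 min at room temperature with inhibitor in 20 mM Tris pH 7.5, 150 mM NaCl, 1 mM EDTA, 0.1% PEG-400, 0.1% Triton X-100. Reaction started with 300 uM PFR-AMC and run 10 min at room temperature. Fluorescence read at 380 nm excitation/460 nm emission.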

plasma kallikrein = molecular target: T1, plasma kallikrein (Homo sapiens, UniProt P03952); experiment: Neat human plasma assay: contact pathway-activated (FXIIa) plasma, PFR-AMC substrate; format: biochemical; settings: citrated human plasma (78% final), 10 nM human FXIIa, 100 μM PFR-AMC, room temperature
T1 construct: from tissue; host or cells: sodium citrate collected human plasma (78% final)
How it was run: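 Compounds spiked into citrated human or rat plasma (78% final), or plasma taken from orally or IV dosed rats, activated with 10 nM human FXIIa; 100 μM PFR-AMC cleavage read at 360/480 nm for 5 min, room temperature. Rates vs concentration fit to 4-parameter IC50/IC90 equation.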

T1 sequence (P03952 391-638 limits assumed): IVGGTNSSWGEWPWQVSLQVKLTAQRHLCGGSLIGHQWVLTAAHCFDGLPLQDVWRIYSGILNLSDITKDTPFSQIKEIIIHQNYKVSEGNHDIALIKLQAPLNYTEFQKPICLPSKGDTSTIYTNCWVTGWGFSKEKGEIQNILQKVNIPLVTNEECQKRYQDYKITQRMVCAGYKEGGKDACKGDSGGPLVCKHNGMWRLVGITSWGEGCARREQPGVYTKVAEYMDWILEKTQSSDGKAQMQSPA
T1 sequence (P03952 20-390 partner limits assumed): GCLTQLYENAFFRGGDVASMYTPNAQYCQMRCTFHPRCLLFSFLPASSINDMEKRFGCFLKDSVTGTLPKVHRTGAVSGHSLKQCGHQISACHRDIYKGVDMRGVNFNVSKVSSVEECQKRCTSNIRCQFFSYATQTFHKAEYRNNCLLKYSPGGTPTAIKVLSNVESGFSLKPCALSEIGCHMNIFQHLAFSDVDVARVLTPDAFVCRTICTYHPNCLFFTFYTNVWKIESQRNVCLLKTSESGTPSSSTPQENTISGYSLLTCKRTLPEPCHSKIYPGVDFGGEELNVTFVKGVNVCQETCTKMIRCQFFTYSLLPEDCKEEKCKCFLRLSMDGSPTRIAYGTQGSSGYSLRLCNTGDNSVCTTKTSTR
Sequence of human activated kallikrein enzyme (P03952 391-638 limits assumed): as the sequence (P03952 391-638 limits assumed) above
Sequence of human activated kallikrein enzyme (P03952 20-390 partner limits assumed): as the sequence (P03952 20-390 partner limits assumed) above

| EC50 [1] | IC90 (plasma kallikrein) | SMILES |
| --- | --- | --- |
| ≤ 0.001 µM | 0.4 to 1.5 µM | Cc1ccnc([C@H]2C[C@@H]2c2nc3cc(NCc4cn5cc(C6CC6)cc(N6CC(=O)N(C)C6=O)c5n4)ncc3c(=O)[nH]2)n1 (racemic) [Example 7, rac-1-(6-cyclopropyl-2-(((2-((1S*,2S*)-2-(4-methylpyrimidin-2-yl)cyclopropyl)-4-oxo-3,4-dihydropyrido[4,3-d]pyrimidin-7-yl)amino)methyl)imidazo[1,2-a]pyridin-8-yl)-3-methylimidazolidine-2,4-dione] |
| ≤ 0.001 µM | 1.5 to 10 µM | Cc1ccnc([C@H]2C[C@@H]2c2ccc3ccc(NCc4cn5cc(C6CC6)cc(N6CC(=O)N(C)C6=O)c5n4)cc3n2)n1 (single isomer, unassigned) [Example 59] |
| ≤ 0.001 µM | 1.5 to 10 µM | Cc1ccnc([C@H]2C[C@@H]2c2cc(-n3ccnc3)c3ccc(NCc4cn5cc(C6CC6)cc(N6CC(=O)N(C)C6=O)c5n4)cc3n2)n1 (racemic) [Example 25, rac-1-(2-(((4-(1H-imidazol-1-yl)-2-((1S*,2S*)-2-(4-methylpyrimidin-2-yl)cyclopropyl)quinolin-7-yl)amino)methyl)-6-cyclopropylimidazo[1,2-a]pyridin-8-yl)-3-methylimidazolidine-2,4-dione] |
| 0.001 to 0.01 µM | 1.5 to 10 µM | Cc1ccnc([C@H]2C[C@@H]2c2cc(-n3cncn3)c3ccc(NCc4cn5cc(C6CC6)cc(N6CC(=O)N(C)C6=O)c5n4)cc3n2)n1 (racemic) [Example 26, rac-1-(6-cyclopropyl-2-(((2-((1S*,2S*)-2-(4-methylpyrimidin-2-yl)cyclopropyl)-4-(1H-1,2,4-triazol-1-yl)quinolin-7-yl)amino)methyl)imidazo[1,2-a]pyridin-8-yl)-3-methylimidazolidine-2,4-dione] |
| ≤ 0.001 µM | 0.4 to 1.5 µM | COCc1cc(NCc2cn3cc(C4CC4)cc(N4CC(=O)N(C)C4=O)c3n2)cc2nc([C@H]3C[C@@H]3c3nccc(C)n3)ccc12 (racemic) [Example 75, rac-1-(6-cyclopropyl-2-(((5-(methoxymethyl)-2-((1S*,2S*)-2-(4-methylpyrimidin-2-yl)cyclopropyl)quinolin-7-yl)amino)methyl)imidazo[1,2-a]pyridin-8-yl)-3-methylimidazolidine-2,4-dione] |
| 0.001 to 0.01 µM | 1.5 to 10 µM | CN1C(=O)CN(c2cc(C3CC3)cn3cc(CNc4ccc5c(=O)[nH]c([C@H]6C[C@@H]6c6cccc(Cl)c6)nc5c4)nc23)C1=O [Example 6, 1-(2-(((2-((1S,2S)-2-(3-chlorophenyl)cyclopropyl)-4-oxo-3,4-dihydroquinazolin-7-yl)amino)methyl)-6-cyclopropylimidazo[1,2-a]pyridin-8-yl)-3-methylimidazolidine-2,4-dione] |
| 0.001 to 0.01 µM | ≤ 0.4 µM | Cc1ccnc(C2CC2c2cc(=O)c3ccc(NCc4cn5cc(C6CC6)cc(N6CC(=O)N(C)C6=O)c5n4)cc3[nH]2)n1 (single isomer, unassigned) [Example 13, 1-(6-cyclopropyl-2-(((2-(2-(4-methylpyrimidin-2-yl)cyclopropyl)-4-oxo-1,4-dihydroquinolin-7-yl)amino)methyl)imidazo[1,2-a]pyridin-8-yl)-3-methylimidazolidine-2,4-dione] |
| ≤ 0.001 µM | 1.5 to 10 µM | Cc1ccnc([C@H]2C[C@@H]2c2nc(=O)c3ccc(NCc4cn5cc(C6CC6)cc(N6CC(=O)N(C)C6=O)c5n4)cc3[nH]2)n1 (racemic) [Example 8, rac-1-(6-cyclopropyl-2-(((2-((1S*,2S*)-2-(4-methylpyrimidin-2-yl)cyclopropyl)-4-oxo-1,4-dihydroquinazolin-7-yl)amino)methyl)imidazo[1,2-a]pyridin-8-yl)-3-methylimidazolidine-2,4-dione] |
| ≤ 0.001 µM | ≤ 0.4 µM | Cc1ccnc([C@H]2C[C@@H]2c2cc(N3CC(O)C3)c3ccc(NCc4cn5cc(C6CC6)cc(N6CC(=O)N(C)C6=O)c5n4)cc3n2)n1 [Example 31, 1-(6-cyclopropyl-2-(((4-(3-hydroxyazetidin-1-yl)-2-((1S,2S)-2-(4-methylpyrimidin-2-yl)cyclopropyl)quinolin-7-yl)amino)methyl)imidazo[1,2-a]pyridin-8-yl)-3-methylimidazolidine-2,4-dione] |
| ≤ 0.001 µM | ≤ 0.4 µM | Cc1ccnc([C@H]2C[C@@H]2c2cc(=O)c3cnc(NCc4cn5cc(C6CC6)cc(N6CC(=O)N(C)C6=O)c5n4)cc3[nH]2)n1 (racemic) [Example 10, rac-1-(6-cyclopropyl-2-(((2-((1S*,2S*)-2-(4-methylpyrimidin-2-yl)cyclopropyl)-4-oxo-1,4-dihydro-1,6-naphthyridin-7-yl)amino)methyl)imidazo[1,2-a]pyridin-8-yl)-3-methylimidazolidine-2,4-dione] |
| ≤ 0.001 µM | 1.5 to 10 µM | Cc1ccnc([C@H]2C[C@@H]2c2ccc3ccc(NCc4cn5cc(C6CC6)cc(N6CC(=O)N(C7COC7)C6=O)c5n4)cc3n2)n1 (racemic) [Example 78, rac-1-(6-cyclopropyl-2-(((2-((1S*,2S*)-2-(4-methylpyrimidin-2-yl)cyclopropyl)quinolin-7-yl)amino)methyl)imidazo[1,2-a]pyridin-8-yl)-3-(oxetan-3-yl)imidazolidine-2,4-dione] |
| ≤ 0.001 µM | ≤ 0.4 µM | Cc1ccnc([C@H]2C[C@@H]2c2cc(N(C)CC(C)(C)O)c3ccc(NCc4cn5cc(C6CC6)cc(N6CC(=O)N(C)C6=O)c5n4)cc3n2)n1 [Example 100, 1-(6-cyclopropyl-2-(((4-((2-hydroxy-2-methylpropyl)(methyl)amino)-2-((1S,2S)-2-(4-methylpyrimidin-2-yl)cyclopropyl)quinolin-7-yl)amino)methyl)imidazo[1,2-a]pyridin-8-yl)-3-methylimidazolidine-2,4-dione] |
| 0.001 to 0.01 µM | 1.5 to 10 µM | Cc1ccnc([C@H]2C[C@@H]2c2ccc3cnc(NCc4cn5cc(C6CC6)cc(N6CC(=O)N(C)C6=O)c5n4)cc3n2)n1 (racemic) [Example 15, rac-1-(6-cyclopropyl-2-(((2-((1S*,2S*)-2-(4-methylpyrimidin-2-yl)cyclopropyl)-1,6-naphthyridin-7-yl)amino)methyl)imidazo[1,2-a]pyridin-8-yl)-3-methylimidazolidine-2,4-dione formic acid salt] |
| ≤ 0.001 µM | 1.5 to 10 µM | Cc1ccnc([C@H]2C[C@@H]2C2=NS(=O)(=O)c3ccc(OCc4cn5cc(C6CC6)ccc5n4)cc3N2)n1 (racemic) [Example 92, rac-6-((6-cyclopropylimidazo[1,2-a]pyridin-2-yl)methoxy)-3-((1S*,2S*)-2-(4-methylpyrimidin-2-yl)cyclopropyl)-4H-benzo[e][1,2,4]thiadiazine 1,1-dioxide] |
| ≤ 0.001 µM | 1.5 to 10 µM | Cc1ccnc([C@H]2C[C@@H]2c2cc(O)c3cnc(NCc4cn5cc(C6CC6)cc(N6CC(=O)N(C)C6=O)c5n4)nc3n2)n1 (racemic) [Example 86, rac-1-(6-cyclopropyl-2-(((5-hydroxy-7-((1S*,2S*)-2-(4-methylpyrimidin-2-yl)cyclopropyl)pyrido[2,3-d]pyrimidin-2-yl)amino)methyl)imidazo[1,2-a]pyridin-8-yl)-3-methylimidazolidine-2,4-dione] |
| ≤ 0.001 µM | ≤ 0.4 µM | Cc1ccnc([C@H]2C[C@@H]2c2cc(N3CC4(COC4)C3)c3ccc(NCc4cc5cc(C6CC6)cc(N6CC(=O)N(C)C6=O)n5n4)cc3n2)n1 [Example 107, 1-(5-cyclopropyl-2-(((2-((1S,2S)-2-(4-methylpyrimidin-2-yl)cyclopropyl)-4-(2-oxa-6-azaspiro[3.3]heptan-6-yl)quinolin-7-yl)amino)methyl)pyrazolo[1,5-a]pyridin-7-yl)-3-methylimidazolidine-2,4-dione] |
| ≤ 0.001 µM | ≤ 0.4 µM | Cc1ccnc([C@H]2C[C@@H]2c2cc(OC3CCN(C)CC3)c3ccc(NCc4cn5cc(C6CC6)cc(N6CC(=O)N(C)C6=O)c5n4)cc3n2)n1 (racemic) [Example 35, rac-1-(6-cyclopropyl-2-(((4-((1-methylpiperidin-4-yl)oxy)-2-((1S*,2S*)-2-(4-methylpyrimidin-2-yl)cyclopropyl)quinolin-7-yl)amino)methyl)imidazo[1,2-a]pyridin-8-yl)-3-methylimidazolidine-2,4-dione] |
| ≤ 0.001 µM | ≤ 0.4 µM | Cc1ccnc([C@H]2C[C@@H]2c2cc(N3CCN(C)CC3)c3ccc(NCc4cn5cc(C6CC6)cc(N6CC(=O)N(C)C6=O)c5n4)cc3n2)n1 [Example 39, 1-(6-cyclopropyl-2-(((4-(4-methylpiperazin-1-yl)-2-((1S,2S)-2-(4-methylpyrimidin-2-yl)cyclopropyl)quinolin-7-yl)amino)methyl)imidazo[1,2-a]pyridin-8-yl)-3-methylimidazolidine-2,4-dione] |
| ≤ 0.001 µM | 0.4 to 1.5 µM | Cc1ccnc([C@H]2C[C@@H]2C2=NS(=O)(=O)c3ccc(NC(C)c4cn5cc(C6CC6)ccc5n4)cc3N2)n1 (stereo partly drawn) [Example 87, 6-((1-(6-cyclopropylimidazo[1,2-a]pyridin-2-yl)ethyl)amino)-3-((1S,2S)-2-(4-methylpyrimidin-2-yl)cyclopropyl)-4H-benzo[e][1,2,4]thiadiazine 1,1-dioxide] |
| ≤ 0.001 µM | ≤ 0.4 µM | CNc1cc([C@H]2C[C@@H]2c2nccc(C)n2)nc2cc(NCc3cn4cc(C5CC5)cc(N5CC(=O)N(C)C5=O)c4n3)ccc12 (racemic) [Example 32, rac-1-(6-cyclopropyl-2-(((4-(methylamino)-2-((1S*,2S*)-2-(4-methylpyrimidin-2-yl)cyclopropyl)quinolin-7-yl)amino)methyl)imidazo[1,2-a]pyridin-8-yl)-3-methylimidazolidine-2,4-dione] |
